Measurements: the kinase profiling compilation of Christmann-Franck et al. (2016)

What was measured:
Assay in all cases: KINOMEscan competition binding
Details in all cases: compound 10.0 µM
YSK4 (human) = YSK4 (human) (UniProt Q56UN5)
STK17B (human) = STK17B (human) (UniProt O94768)
MAPK8 (human) = MAPK8 (human) (UniProt P45983)
EPHA3 (human) = EPHA3 (human) (UniProt P29320)
IRAK1 (human) = IRAK1 (human) (UniProt P51617)
LATS2 (human) = LATS2 (human) (UniProt Q9NRM7)
RPS6KA6 KD2 (human) = RPS6KA6 KD2 (human) (UniProt Q9UK32)
PTK2B (human) = PTK2B (human) (UniProt Q14289)
DAPK1 (human) = DAPK1 (human) (UniProt P53355)
HIPK3 (human) = HIPK3 (human) (UniProt Q9H422)
Sequence of HIPK3 (human) (Q9H422 whole entry, looked up): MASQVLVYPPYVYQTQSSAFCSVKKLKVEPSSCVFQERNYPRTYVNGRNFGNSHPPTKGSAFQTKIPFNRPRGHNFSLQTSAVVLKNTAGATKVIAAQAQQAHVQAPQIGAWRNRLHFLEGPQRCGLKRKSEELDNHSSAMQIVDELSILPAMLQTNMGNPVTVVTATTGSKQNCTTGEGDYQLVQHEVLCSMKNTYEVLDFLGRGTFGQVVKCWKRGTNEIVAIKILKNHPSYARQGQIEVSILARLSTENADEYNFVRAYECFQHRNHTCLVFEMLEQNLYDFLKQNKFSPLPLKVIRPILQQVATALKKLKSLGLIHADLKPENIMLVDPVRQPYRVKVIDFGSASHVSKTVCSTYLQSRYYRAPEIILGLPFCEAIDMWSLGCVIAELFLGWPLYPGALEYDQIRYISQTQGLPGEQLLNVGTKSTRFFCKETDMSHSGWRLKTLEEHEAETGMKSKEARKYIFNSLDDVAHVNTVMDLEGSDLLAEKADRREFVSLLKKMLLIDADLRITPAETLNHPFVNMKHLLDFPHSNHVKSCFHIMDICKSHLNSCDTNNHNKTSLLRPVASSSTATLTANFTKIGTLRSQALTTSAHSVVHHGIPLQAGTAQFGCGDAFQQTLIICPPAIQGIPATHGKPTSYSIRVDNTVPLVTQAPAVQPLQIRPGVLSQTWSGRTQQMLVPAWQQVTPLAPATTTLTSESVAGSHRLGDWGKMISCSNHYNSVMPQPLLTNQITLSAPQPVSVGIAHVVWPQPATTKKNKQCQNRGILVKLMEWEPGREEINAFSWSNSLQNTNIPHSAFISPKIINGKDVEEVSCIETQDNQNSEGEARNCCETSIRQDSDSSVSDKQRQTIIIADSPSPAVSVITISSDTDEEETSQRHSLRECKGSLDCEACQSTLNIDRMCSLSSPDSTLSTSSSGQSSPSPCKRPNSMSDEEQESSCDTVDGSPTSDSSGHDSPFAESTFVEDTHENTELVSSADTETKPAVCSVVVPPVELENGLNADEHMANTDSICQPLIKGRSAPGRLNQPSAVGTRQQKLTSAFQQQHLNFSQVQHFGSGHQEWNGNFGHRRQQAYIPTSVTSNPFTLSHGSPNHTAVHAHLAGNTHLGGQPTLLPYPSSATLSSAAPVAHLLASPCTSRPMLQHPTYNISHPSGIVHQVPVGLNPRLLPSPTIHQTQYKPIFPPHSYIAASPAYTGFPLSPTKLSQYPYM

TAOK3 (human) = TAOK3 (human) (UniProt Q9H2K8)
CLK1 (human) = CLK1 (human) (UniProt P49759)
YES1 (human) = YES1 (human) (UniProt P07947)
CAMK4 (human) = CAMK4 (human) (UniProt Q16566)
CDK13 (human) = CDK13 (human) (UniProt Q14004)
PIP5K1C (human) = PIP5K1C (human) (UniProt O60331)
CDK19 (human) = CDK19 (human) (UniProt Q9BWU1)
Sequence of CDK19 (human) (Q9BWU1 whole entry, looked up): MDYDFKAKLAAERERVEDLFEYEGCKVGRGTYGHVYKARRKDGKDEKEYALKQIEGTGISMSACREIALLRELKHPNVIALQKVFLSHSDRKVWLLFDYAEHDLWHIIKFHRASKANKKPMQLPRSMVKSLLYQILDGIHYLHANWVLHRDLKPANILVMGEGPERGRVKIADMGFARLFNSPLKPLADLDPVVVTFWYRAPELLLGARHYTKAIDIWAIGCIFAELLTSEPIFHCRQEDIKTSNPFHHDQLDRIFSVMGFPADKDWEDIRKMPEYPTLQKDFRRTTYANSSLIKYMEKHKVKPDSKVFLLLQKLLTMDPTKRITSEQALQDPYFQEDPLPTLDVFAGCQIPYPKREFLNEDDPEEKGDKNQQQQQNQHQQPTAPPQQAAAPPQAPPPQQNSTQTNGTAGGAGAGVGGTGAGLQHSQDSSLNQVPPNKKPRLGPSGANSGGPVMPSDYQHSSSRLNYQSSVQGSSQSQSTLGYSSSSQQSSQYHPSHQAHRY

HIPK1 (human) = HIPK1 (human) (UniProt Q86Z02)
FGFR2 (human) = FGFR2 (human) (UniProt P21802)
PHKG2 (human) = PHKG2 (human) (UniProt P15735)
MAPK7 (human) = MAPK7 (human) (UniProt Q13164)
MAP3K11 (human) = MAP3K11 (human) (UniProt Q16584)
STK39 (human) = STK39 (human) (UniProt Q9UEW8)
CDK15 (human) = CDK15 (human) (UniProt Q96Q40)
PRKD3 (human) = PRKD3 (human) (UniProt O94806)
NEK6 (human) = NEK6 (human) (UniProt Q9HC98)
Sequence of NEK6 (human) (Q9HC98 whole entry, looked up): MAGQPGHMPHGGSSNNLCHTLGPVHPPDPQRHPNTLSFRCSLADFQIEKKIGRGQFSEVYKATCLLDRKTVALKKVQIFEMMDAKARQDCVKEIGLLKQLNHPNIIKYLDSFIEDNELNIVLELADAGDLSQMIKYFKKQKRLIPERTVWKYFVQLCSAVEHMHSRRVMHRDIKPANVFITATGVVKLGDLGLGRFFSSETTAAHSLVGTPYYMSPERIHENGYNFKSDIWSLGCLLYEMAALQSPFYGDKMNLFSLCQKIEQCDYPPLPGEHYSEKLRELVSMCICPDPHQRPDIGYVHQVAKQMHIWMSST

CSNK2A1 (human) = CSNK2A1 (human) (UniProt P68400)
FLT3 (human) = FLT3 (human) (UniProt P36888)
NTRK3 (human) = NTRK3 (human) (UniProt Q16288)
[1] = biological target: JAK3 JH1 catalytic (human) (UniProt P52333)
STK36 (human) = STK36 (human) (UniProt Q9NRP7)
PDGFRB (human) = PDGFRB (human) (UniProt P09619)
STK10 (human) = STK10 (human) (UniProt O94804)
Sequence of STK10 (human) (O94804 whole entry, looked up): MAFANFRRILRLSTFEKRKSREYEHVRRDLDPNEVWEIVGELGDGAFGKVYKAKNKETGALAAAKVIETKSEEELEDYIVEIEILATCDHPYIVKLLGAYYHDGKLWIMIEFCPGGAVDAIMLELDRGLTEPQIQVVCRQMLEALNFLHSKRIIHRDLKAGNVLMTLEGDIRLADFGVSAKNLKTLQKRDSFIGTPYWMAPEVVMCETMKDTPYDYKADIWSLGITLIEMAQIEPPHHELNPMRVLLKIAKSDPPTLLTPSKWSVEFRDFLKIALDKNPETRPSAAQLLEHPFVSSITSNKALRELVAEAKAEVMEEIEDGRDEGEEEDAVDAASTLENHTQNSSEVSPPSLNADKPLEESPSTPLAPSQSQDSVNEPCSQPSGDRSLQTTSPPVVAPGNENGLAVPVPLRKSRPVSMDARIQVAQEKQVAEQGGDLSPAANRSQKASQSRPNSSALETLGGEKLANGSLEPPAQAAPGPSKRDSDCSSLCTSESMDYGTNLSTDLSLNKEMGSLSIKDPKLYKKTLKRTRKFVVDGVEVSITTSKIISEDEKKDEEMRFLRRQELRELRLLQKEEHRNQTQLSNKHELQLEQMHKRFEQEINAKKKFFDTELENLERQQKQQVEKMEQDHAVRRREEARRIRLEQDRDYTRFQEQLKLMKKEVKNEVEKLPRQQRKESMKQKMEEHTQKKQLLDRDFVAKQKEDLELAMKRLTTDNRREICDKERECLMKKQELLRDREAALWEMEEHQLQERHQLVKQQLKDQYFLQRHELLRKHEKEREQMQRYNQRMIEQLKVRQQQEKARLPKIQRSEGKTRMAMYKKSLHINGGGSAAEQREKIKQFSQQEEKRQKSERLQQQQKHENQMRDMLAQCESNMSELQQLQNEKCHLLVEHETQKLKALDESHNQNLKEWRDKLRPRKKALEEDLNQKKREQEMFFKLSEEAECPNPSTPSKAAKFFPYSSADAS

[2] = biological target: JAK1 JH1 catalytic (human) (UniProt P23458)
MARK3 (human) = MARK3 (human) (UniProt P27448)
STK24 (human) = STK24 (human) (UniProt Q9Y6E0)
[3] = biological target: TYK2 JH2 pseudokinase (human) (UniProt P29597)
PHKG1 (human) = PHKG1 (human) (UniProt Q16816)
NEK3 (human) = NEK3 (human) (UniProt P51956)
PAK7 (human) = PAK7 (human) (UniProt Q9P286)
SRPK1 (human) = SRPK1 (human) (UniProt Q96SB4)

Sequence of LATS2 (human) (Q9NRM7 whole entry, looked up): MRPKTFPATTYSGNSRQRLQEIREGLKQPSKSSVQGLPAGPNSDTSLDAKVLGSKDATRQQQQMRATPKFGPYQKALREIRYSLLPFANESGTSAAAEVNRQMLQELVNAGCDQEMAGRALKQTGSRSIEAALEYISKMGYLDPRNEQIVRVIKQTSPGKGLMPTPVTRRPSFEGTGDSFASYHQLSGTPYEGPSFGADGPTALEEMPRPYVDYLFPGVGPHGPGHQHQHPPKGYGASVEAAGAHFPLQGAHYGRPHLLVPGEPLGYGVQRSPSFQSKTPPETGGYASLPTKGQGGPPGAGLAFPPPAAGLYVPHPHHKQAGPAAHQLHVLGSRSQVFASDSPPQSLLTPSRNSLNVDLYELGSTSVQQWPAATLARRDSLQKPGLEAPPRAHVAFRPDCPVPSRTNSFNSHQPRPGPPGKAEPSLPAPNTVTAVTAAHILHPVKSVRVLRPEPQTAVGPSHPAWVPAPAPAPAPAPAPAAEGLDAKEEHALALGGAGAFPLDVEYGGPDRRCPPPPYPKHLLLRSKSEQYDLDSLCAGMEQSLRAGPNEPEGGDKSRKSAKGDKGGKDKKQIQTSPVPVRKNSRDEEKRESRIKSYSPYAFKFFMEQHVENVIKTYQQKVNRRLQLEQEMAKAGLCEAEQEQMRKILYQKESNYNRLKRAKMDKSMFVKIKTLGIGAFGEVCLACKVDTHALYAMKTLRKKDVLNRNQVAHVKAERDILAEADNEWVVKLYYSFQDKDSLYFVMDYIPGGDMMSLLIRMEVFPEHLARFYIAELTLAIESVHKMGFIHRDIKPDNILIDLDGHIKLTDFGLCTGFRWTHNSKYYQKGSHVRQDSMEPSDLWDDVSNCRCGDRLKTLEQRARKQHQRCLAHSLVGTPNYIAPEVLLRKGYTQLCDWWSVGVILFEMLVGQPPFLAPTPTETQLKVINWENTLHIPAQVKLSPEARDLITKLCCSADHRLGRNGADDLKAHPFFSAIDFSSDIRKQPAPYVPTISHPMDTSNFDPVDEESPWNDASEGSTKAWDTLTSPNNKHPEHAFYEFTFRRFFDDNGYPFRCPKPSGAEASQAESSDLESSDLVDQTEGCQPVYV
Sequence of EPHA3 (human) (P29320 whole entry, looked up): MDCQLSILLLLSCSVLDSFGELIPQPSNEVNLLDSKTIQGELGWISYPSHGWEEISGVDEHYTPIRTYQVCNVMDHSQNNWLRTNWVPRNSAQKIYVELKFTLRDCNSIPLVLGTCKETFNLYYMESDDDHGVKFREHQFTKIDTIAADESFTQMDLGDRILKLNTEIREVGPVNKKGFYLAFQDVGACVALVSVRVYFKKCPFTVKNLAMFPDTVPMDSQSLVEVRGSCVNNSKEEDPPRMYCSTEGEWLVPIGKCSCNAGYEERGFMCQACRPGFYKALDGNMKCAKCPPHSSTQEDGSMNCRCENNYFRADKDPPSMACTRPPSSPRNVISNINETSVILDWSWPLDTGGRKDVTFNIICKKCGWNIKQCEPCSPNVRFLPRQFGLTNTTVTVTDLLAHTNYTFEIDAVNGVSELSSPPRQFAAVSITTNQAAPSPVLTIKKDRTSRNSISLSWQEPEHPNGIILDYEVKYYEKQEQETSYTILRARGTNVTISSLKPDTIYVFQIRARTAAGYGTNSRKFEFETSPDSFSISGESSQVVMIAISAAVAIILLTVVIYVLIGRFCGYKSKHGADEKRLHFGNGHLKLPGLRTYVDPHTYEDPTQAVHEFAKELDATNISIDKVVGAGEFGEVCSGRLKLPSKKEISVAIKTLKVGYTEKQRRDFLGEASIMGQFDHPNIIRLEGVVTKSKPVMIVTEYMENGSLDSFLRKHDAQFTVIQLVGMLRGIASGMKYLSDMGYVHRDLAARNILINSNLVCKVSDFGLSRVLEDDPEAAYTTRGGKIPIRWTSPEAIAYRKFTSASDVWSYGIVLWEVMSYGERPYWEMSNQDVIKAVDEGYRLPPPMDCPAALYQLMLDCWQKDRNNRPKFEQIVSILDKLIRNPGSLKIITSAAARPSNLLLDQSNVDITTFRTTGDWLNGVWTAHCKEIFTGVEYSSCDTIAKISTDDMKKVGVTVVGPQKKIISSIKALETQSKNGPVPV

CC(C)n1nc(-c2cc3cc(O)ccc3[nH]2)c2c(N)ncnc21
kinase still bound, per cent of control (YSK4 (human)): 0%
kinase still bound, per cent of control (STK17B (human)): 40%
kinase still bound, per cent of control (MAPK8 (human)): 89%
kinase still bound, per cent of control (EPHA3 (human)): 1.5%
kinase still bound, per cent of control (IRAK1 (human)): 25%
kinase still bound, per cent of control (LATS2 (human)): 41%
kinase still bound, per cent of control (RPS6KA6 KD2 (human)): 47%
kinase still bound, per cent of control (PTK2B (human)): 100%
kinase still bound, per cent of control (DAPK1 (human)): 3%
kinase still bound, per cent of control (HIPK3 (human)): 0.9%
kinase still bound, per cent of control (TAOK3 (human)): 4.7%
kinase still bound, per cent of control (CLK1 (human)): 14%
kinase still bound, per cent of control (YES1 (human)): 3.2%
kinase still bound, per cent of control (CAMK4 (human)): 100%
per cent of control (CDK13 (human)): 100%
kinase still bound, per cent of control (PIP5K1C (human)): 9.8%
per cent of control (CDK19 (human)): 24%
kinase still bound, per cent of control (HIPK1 (human)): 1.9%
kinase still bound, per cent of control (FGFR2 (human)): 5.8%
kinase still bound, per cent of control (PHKG2 (human)): 12%
kinase still bound, per cent of control (MAPK7 (human)): 100%
kinase still bound, per cent of control (MAP3K11 (human)): 79%
per cent of control (STK39 (human)): 97%
per cent of control (CDK15 (human)): 96%
kinase still bound, per cent of control (PRKD3 (human)): 94%
kinase still bound, per cent of control (NEK6 (human)): 100%
kinase still bound, per cent of control (CSNK2A1 (human)): 16%
kinase still bound, per cent of control (FLT3 (human)): 40%
kinase still bound, per cent of control (NTRK3 (human)): 49%
kinase still bound, per cent of control [1]: 0%
kinase still bound, per cent of control (STK36 (human)): 100%
kinase still bound, per cent of control (PDGFRB (human)): 0%
kinase still bound, per cent of control (STK10 (human)): 0.5%
kinase still bound, per cent of control [2]: 11%
kinase still bound, per cent of control (MARK3 (human)): 100%
kinase still bound, per cent of control (STK24 (human)): 67%
kinase still bound, per cent of control [3]: 2.6%
kinase still bound, per cent of control (PHKG1 (human)): 50%
kinase still bound, per cent of control (NEK3 (human)): 55%
kinase still bound, per cent of control (PAK7 (human)): 8.6%
kinase still bound, per cent of control (SRPK1 (human)): 100%
